Experimental data published in patent US20160223554A1, “METHODS FOR DIAGNOSIS, PROGNOSIS AND METHODS OF TREATMENT” (priority 2011, published 2016).
Like-named read-outs stand apart in the source and are kept apart here. Residues, ends and D or L forms follow the SMILES beside them. *: point of attachment. Cbz = O=C(OCc1ccccc1)*; CH2F = FC*

Legend:
[1] = system: AML blasts; test: SCNP functional apoptosis and DNA damage response assay in AML PBMC (Examples 2, 6, 8, 10); type: cell-based, human; settings: with staurosporine or etoposide
Protocol: A viable cell will be Aqua negative and PARP negative and a measure of cell death is PARP and/or Aqua positivity.
“Apoptosis”=% of PARP^−Aqua^−unstim−% of PARP^−Aqua^−Drug.
Functional assays were performed as previously described. See Irish, et al., Cell 2004; 118:217-228.
The median fluorescence intensity (MFI) was computed for each node from the fluorescence intensity levels for the cells in the myeloid population. The MFI values were then used to compute a variety of metrics by comparing them to baseline or background values, including the unmodulated condition, cellular autofluorescence and antibody isotype controls. The following metrics were computed: • 1. Basal MFI (“Basal”)=log2(MFIUnmodulated Stained)−log2(MFIGated Unstained (Autofluoresence)), designed to measure the basal levels of a certain protein under unmodulated conditions. • 2. Fold Change MFI (“Fold”)=log2(MFIModulated Stained)−log2(MFIUnmodulated Stained), a measure of the change in the activation state of a protein under modulated conditions. • 3. Total Phospho MFI (“TotalPhospho”)=log2(MFIModulated Stained)−log2(MFIGated Unstained (Autofluorescence)), a measure of the total levels of a protein under modulated conditions. • 4. Relative Protein Expression (“Rel. Expression”)=log2(MFIstain)−log2(MFIControl), a measure of the levels of surface marker staining relative to control antibody staining • 5. […]

[2] = system: AML leukemic cells; test: Apotosis/Cytostasis Arm with kinase inhibitors (Example 13); type: cell-based, human; settings: two samples with greatest SCF and G-CSF signaling response; 1 μM; 48-hr incubation
Excerpt: All results were compared with results from bone marrow samples from healthy donors (N=6).

[3] = cited from earlier work

With `COC(=O)CC(NC(=O)C(C)NC(=O)C(NC(=O)OCc1ccccc1)C(C)C)C(=O)CF` (stereo not drawn) [Z-VAD, Benzyloxycarbonyl-Val-Ala-Asp (OMe) fluoromethylketone] (Cbz-Val-Ala-Asp(OMe)-CH2F; configuration not given here) as the molecule, how does the “effect of co-incubation with pan-Caspase inhibitor on Cleaved Caspase-3 and PARP” value ([1]; samples 0341, 0521) read?
The value was “inhibited cleavage of caspase 3 and PARP to near completion”.

And the “effect of co-incubation with pan-Caspase inhibitor on PARP cleavage” value ([1]; samples 8303, 8402)?
Its value is “only partially inhibited”.

Which “sensitivity to kinase inhibitor, cytostasis readouts” value [2] does the source give for `C[C@@H]1CCN(C(=O)CC#N)C[C@@H]1N(C)c1ncnc2[nH]ccc12` [CP-690,550] here?
Its value is “most sensitive”.

With `Nc1ccn([C@@H]2O[C@H](CO)[C@@H](O)[C@@H]2O)c(=O)n1` [Cytarabine, 1β-arabinofuranosylcytosine] as the molecule, how does the peak plasma concentration ([3]; high dose Cytarabine, 3 g/m2) read?
The peak plasma concentration was 2 µM.

What about the peak plasma concentration ([3]; standard dose of Cytarabine, 100 mg/m2) of the same molecule?
The peak plasma concentration was “approximately 40 nM”.
